Experimental data published in the OPERA property sets (Mansouri et al. 2018).

Settings: for log10 BCF / log10 biotransformation half-life (days): fish

Structure (SMILES) | melting point [°C] | boiling point [°C] | other results
O=[N+]([O-])c1ccc(Cl)c(Cl)c1Cl | 55.5 |  | log10 BCF: 2.2; log10 biotransformation half-life (days): -0.19
C[C@@H]1CC[C@H](C)c2ccccc21 |  | 226 | 
Clc1ccc2c(Cl)c(Cl)c(Cl)c(Cl)c2c1 |  |  | log10 vapour pressure (mmHg): -5.96
CC(Cl)CC(C)Cl (stereo unspecified) |  | 145 | 
CC(=O)Oc1cccc2ccccc12 | 44.5 |  | 
O=S(=O)(O)CCNC1CCCCC1 | 320 |  | 
S=C1CCCCCN1 | 108 |  | 
O=C(Cl)N(c1ccccc1)c1ccccc1 | 83 |  | 
CC(C)(C)CN |  | 82 | 
CCCCCC#N | -80.3 | 164 | log10 Koa: 4.08; log10 vapour pressure (mmHg): 0.455
CCOP(=S)(OCC)Oc1ccc(SC)cc1 |  |  | log10 Koc (L/kg): 3.18
FC(F)(F)C(F)(F)C(F)(F)C(F)(F)C(F)(F)C(F)(F)C(F)(F)C(F)(F)C(F)(F)I |  | 181 | 
Clc1ccc(C(Cl)(Cl)Cl)cc1 |  | 245 | 
CCC(C(=O)NC(N)=O)c1ccccc1 (stereo unspecified) | 162 |  | 
CNC(N)=O | 103 |  | 
CCCCCC(O)(CC)CC |  | 199 | 
COC(=O)CC(C)C |  | 116 | log10 vapour pressure (mmHg): 1.15
FCc1ccccc1 | -35 | 140 | log10 vapour pressure (mmHg): 0.832
NC1CC1 | -35.4 | 50.5 | 
Cc1ccccc1 | -94.9 | 111 | log10 Henry constant (atm·m³/mol): -2.18; log10 biodegradation half-life (days): 0.301; log10 vapour pressure (mmHg): 1.45; ready biodegradability: readily biodegradable; log10 BCF: 0.92
Cc1ccc(C)n1C |  | 171 | 
CC(=O)NC(N)=O | 218 |  | 
C=CC(=O)OC1CCCCC1C (stereo unspecified) |  | 210 | 

Structure (SMILES) | melting point [°C] | boiling point [°C] | other results
N=C(N)S(=O)O |  |  | ready biodegradability: readily biodegradable
CCCCCCCCCCCC(=O)CC | 34 |  | 
Oc1ccc(F)c(F)c1F | 32 |  | 
COc1ccc2c(c1)[nH]c1c(C)nccc12 | 273 |  | 
O=Cc1cccc(O)c1O | 108 | 235 | 
CCNCCO |  | 170 | 
O=C(O)CCc1ccco1 | 58 | 229 | 
Cc1c(C)n(C)c2ccccc12 | 18 | 283 | 
CCNc1nc(O)nc(NCC)n1 |  |  | ready biodegradability: not readily biodegradable
CC(=O)Nc1ccc(-c2ccc(N)cc2)cc1 |  |  | ready biodegradability: not readily biodegradable
COC(=O)Nc1nc2cc(C(=O)c3ccccc3)ccc2[nH]1 | 288 |  | 
c1ccc(C2CCc3ccccc3O2)cc1 (stereo unspecified) | 46.3 | 332 | 
Clc1ccc(Br)s1 | -20 |  | 
Cc1cc(Cc2cc(C)cc(C(C)(C)C)c2O)c(O)c(C(C)(C)C)c1 | 123 |  | ready biodegradability: not readily biodegradable; log10 BCF: 2.74; log10 biotransformation half-life (days): 0.03
C1=CCCC=CCCC=CCC1 | -9.25 | 240 | ready biodegradability: not readily biodegradable; log10 BCF: 3.92; log10 biotransformation half-life (days): 1.74
O=C(O)c1cc(Cl)c(Cl)cc1Cl | 166 |  | 
CCc1nc(C)c[nH]1 | 50.5 | 294 | 
OCc1cc(Br)ccc1O | 113 |  | 
Nc1ccc(Nc2ccccc2)c2c1C(=O)c1ccccc1C2=O | 192 |  | 
CCCCCCC(=O)Cl | -83.8 | 145 | log10 vapour pressure (mmHg): -0.35
N#Cc1cccc2ccccc12 | 37.5 | 299 | 
O=Cc1ccccc1[N+](=O)[O-] | 43.5 |  | log10 vapour pressure (mmHg): -1.75
c1ccc(-c2cnc(-c3ccc(-c4ncc(-c5ccccc5)o4)cc3)o2)cc1 | 245 |  | 

Structure (SMILES) | melting point [°C] | boiling point [°C] | other results
CCCCCCCCCCCCOC(=O)c1cc(O)c(O)c(O)c1 | 96.5 |  | 
O=[N+]([O-])c1ccc(C=NO)cc1 | 128 |  | 
C=Cc1cccnc1 |  | 162 | 
COc1ccc(Br)cc1 | 13.5 | 215 | log10 vapour pressure (mmHg): -0.692
CCC=C(C)C=O |  | 136 | 
CCCCCCCCCCCCc1ccccc1 | 3 | 328 | log10 vapour pressure (mmHg): -4.29; ready biodegradability: readily biodegradable
COc1ccc(Nc2ccc(N)cc2)cc1 | 102 |  | 
O=C(O)c1c(Cl)cc(Cl)cc1Cl | 162 |  | 
CCCCCCC(C)NC(C)CCCCCC (stereo unspecified) |  | 283 | 
COC(F)(F)C(F)(F)C(F)(F)F |  |  | log10 vapour pressure (mmHg): 2.75
Cc1ccc2c(c1)CCCC2 | -40 | 229 | 
O=C(O)C(c1ccc(Cl)cc1)c1ccc(Cl)cc1 | 168 |  | 
CCOc1ccc(C#N)cc1 | 61.5 | 258 | 
CCCCOC(=O)CC(O)(CC(=O)OCCCC)C(=O)OCCCC | -20 |  | 
CCC=CCC(=O)OCC |  | 166 | 
ClC(Cl)(Cl)C(Cl)(Cl)Cl | 187 |  | log10 Henry constant (atm·m³/mol): -2.41; log10 Koa: 4.47; log10 vapour pressure (mmHg): -0.678; ready biodegradability: not readily biodegradable; log10 BCF: 2.71; log10 biotransformation half-life (days): 0.76
Clc1cc2oc3cc(Cl)c(Cl)c(Cl)c3c2c(Cl)c1Cl |  |  | log10 Koa: 10.9
CCS(=O)(=O)c1ccccc1 | 42 |  | 
CC(C)(C)c1ccc(OC(=O)c2ccccc2O)cc1 | 62 |  | 
CCC(CO)[N+](=O)[O-] (stereo unspecified) | -47 |  | 
C[C@]12N[C@H](Cc3ccccc31)c1ccccc12 | 68.8 |  | 
CN(C)CCN(C)C | -55 | 121 | 
CCCCS(=O)(=O)CCCC | 45 | 291 | 

Structure (SMILES) | melting point [°C] | boiling point [°C] | other results
NC(=O)Cc1cccc2ccccc12 | 184 |  | log10 Koc (L/kg): 2
CCCCNc1ccccc1 | -14.4 | 244 | 
CC(C)(O)C(=O)c1ccc(OCCO)cc1 | 89 |  | 
CC(=O)CC(=O)Nc1ccc(C)cc1 |  |  | ready biodegradability: readily biodegradable
CCC(CC)CCC(C)C |  | 160 | 
NCC1CCCCC1 |  | 160 | 
Oc1cccc(O)c1O | 133 | 309 | log10 vapour pressure (mmHg): -3.32; ready biodegradability: readily biodegradable
CC(CN(C)C)CN1c2ccccc2CCc2ccccc21 (stereo unspecified) | 45 |  | 
CCCCOC(=O)C1=CC(=O)CC(C)(C)O1 |  | 263 | log10 vapour pressure (mmHg): -3.52
CC[N+]1(C)CCCC(OC(=O)C(O)(c2ccccc2)c2ccccc2)C1.[Br-] (stereo unspecified) | 180 |  | 
c1ccc2[nH]cnc2c1 | 170 |  | 
CCC(C)(S(=O)(=O)CC)S(=O)(=O)CC | 76 |  | 
C=C[C@H](C)O |  | 96.5 | 
CCCNC(C)C |  | 96.9 | 
CC(C)C(O)CO (stereo unspecified) |  | 206 | 
S=C=NC1CCCCC1 |  | 220 | 
N#Cc1ccccc1C#N | 140 |  | ready biodegradability: not readily biodegradable; log10 BCF: 0.7; log10 biotransformation half-life (days): -0.67
ClC1=C(Cl)C(Cl)(Cl)C(Cl)(Cl)C1(Cl)Cl | 40 | 283 | 
O=C(O)CCCCCCCCCCCCC(=O)O | 127 |  | ready biodegradability: readily biodegradable
C=COCC(C)C | -112 | 83 | log10 vapour pressure (mmHg): 1.77
CCCCCCCCCCCCCC(C)=O | 39.5 | 294 | 
NS(=O)(=O)c1ccc(Cl)c(S(N)(=O)=O)c1 | 207 |  | 
CCCCOCC1CO1 (stereo unspecified) |  | 165 | log10 vapour pressure (mmHg): 0.505; ready biodegradability: readily biodegradable

Structure (SMILES) | melting point [°C] | boiling point [°C] | other results
CCCCCS | -75.7 | 127 | log10 vapour pressure (mmHg): 1.14
CCC(C)CC(C)C (stereo unspecified) |  | 110 | log10 biodegradation half-life (days): 0.845; log10 vapour pressure (mmHg): 1.48
O=C(c1ccccc1)c1ccccc1C(F)(F)F | 61 |  | 
Nc1ccc(N)c2c1C(=O)c1cccc([N+](=O)[O-])c1C2=O | 257 |  | 
CCCCCCCCCCN | 17 | 220 | log10 vapour pressure (mmHg): -1; ready biodegradability: readily biodegradable
Clc1ccc(-c2ccc(Cl)c(Cl)c2Cl)cc1Cl |  |  | log10 Koa: 10; log10 vapour pressure (mmHg): -5.18; log10 biotransformation half-life (days): 2.06
Nc1c2ccccc2nc2ccccc12 | 241 |  | 
CCCCCC#CCC(=O)O | 17 |  | 
CC(=O)CCCO |  | 209 | 
CN1CCCCC1 |  | 107 | log10 Henry constant (atm·m³/mol): -4.46; log10 vapour pressure (mmHg): 1.29; ready biodegradability: not readily biodegradable; log10 BCF: 0.65
COc1ccc(C)cc1 | -32 | 176 | 
CCCCCC(=O)OCC | -67 | 167 | log10 Koc (L/kg): 2.06
O=C(O)C(F)Cl (stereo unspecified) |  | 162 | 
O=C(Cl)c1ccccc1 | -1 | 197 | log10 vapour pressure (mmHg): -0.155
CCCCCCOC(=O)CCCC | -63.1 | 226 | 
CC(=O)Oc1cccc(C(=O)O)c1OC(C)=O | 149 |  | 
Cc1cc(C)c2ncccc2c1 |  | 268 | 
CC(C)CCC(O)C(C)C (stereo unspecified) |  | 175 | 
NC(=O)OCC(Cl)(Cl)Cl | 64 |  | 
CCNCCN |  | 129 | 
N[C@@H](CSCC(=O)O)C(=O)O | 206 |  | 
CCC(C)CS (stereo unspecified) |  | 116 | log10 vapour pressure (mmHg): 1.3
N#Cc1ccco1 |  | 147 | 

Structure (SMILES) | melting point [°C] | boiling point [°C] | other results
CN(C)[C@@H]1C(O)=C(C(N)=O)C(=O)[C@@]2(O)C(O)=C3C(=O)c4c(O)cccc4[C@@](C)(O)[C@H]3C[C@@H]12.Cl | 222 |  | 
CCCC(O)C(C)C (stereo unspecified) |  | 141 | log10 vapour pressure (mmHg): 0.129
CCN(CC)C1CCCCC1 |  | 193 | 
CCNc1nc(NCC)nc(SC)n1 |  |  | log10 Koc (L/kg): 2.3
CCC(C#N)CC#N (stereo unspecified) | -41 | 264 | log10 vapour pressure (mmHg): -1.72
N#CCCS(=O)(=O)O.[Na+] | 244 |  | 
O=C(O)CNC(=O)OCc1ccccc1 | 121 |  | 
C=C(C)C(N)=O | 110 |  | log10 vapour pressure (mmHg): -1.07
Oc1ccc(Sc2ccc(O)cc2)cc1 | 155 |  | 
Clc1ccc(Cl)c(-c2cc(Cl)ccc2Cl)c1 |  |  | log10 Henry constant (atm·m³/mol): -3.7; log10 Koa: 8.47; log10 Koc (L/kg): 5.12; ready biodegradability: not readily biodegradable; log10 BCF: 4.26
CCCN(CC1CC1)c1c([N+](=O)[O-])cc(C(F)(F)F)cc1[N+](=O)[O-] | 32.3 |  | log10 Koc (L/kg): 4.01; log10 vapour pressure (mmHg): -4.2
O=[N+]([O-])c1cc(Cl)c(O)c(Cl)c1 | 127 |  | 
CCCCCCCCCCCCOC(=O)c1ccc(N)cc1 | 82 |  | 
O=C(c1ccccc1)c1ccc(Cl)c([N+](=O)[O-])c1 | 105 |  | 
O[C@H]1C=CCCC1 |  | 164 | 
Cc1ccc(CC(=O)O)cc1 | 93 | 265 | 
CC(=O)O[Si](C)(C)OC(C)=O | -12.5 | 165 | 
CCCC(=O)c1ccc(C)cc1 | 12 | 252 | 
S=C=Nc1ccc(Cl)cc1 | 46 | 250 | 
Nc1cccc2cc(O)ccc12 | 191 |  | 
